In ChEMBL document CHEMBL1201861, “Genomics of Drug Sensitity in Cancer screening data, Wellcome Trust Sanger Institute”:

What was measured:
Experiment in all cases: cells
Settings in all cases: Homo sapiens
SH-4 = format: functional, cell-based;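 note: growth inhibition of SH-4 cells, read out with a cell viability assay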
Description: SANGER: Inhibition of human SH-4 cell growth in a cell viability assay.

SW 962 = format: functional, cell-based;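 note: growth inhibition of human SW962 cells, read out by a cell viability assay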
Description: SANGER: Inhibition of human SW962 cell growth in a cell viability assay.

HC-1 = format: functional, cell-based;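 note: growth inhibition of HC-1 cells measured by a cell viability assay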
Description: SANGER: Inhibition of human HC-1 cell growth in a cell viability assay.

TGBC1TKB = format: functional, cell-based;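 note: growth inhibition of TGBC1TKB cells, read out by a cell viability assay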
Description: SANGER: Inhibition of human TGBC1TKB cell growth in a cell viability assay.

Calu-6 = format: functional, cell-based;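 note: growth of human Calu-6 cells, read out by a cell viability assay, IC50 marking inhibition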
Description: SANGER: Inhibition of human Calu-6 cell growth in a cell viability assay.

no-11 = format: functional, cell-based;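 note: growth inhibition of human NO-11 cells, read out with a cell viability assay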
Description: SANGER: Inhibition of human no-11 cell growth in a cell viability assay.

NCI-H1355 = format: functional, cell-based;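 note: growth inhibition of human NCI-H1355 cells, read out by a cell viability assay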
Description: SANGER: Inhibition of human NCI-H1355 cell growth in a cell viability assay.

NCI-H1838 = format: functional, cell-based;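 note: growth inhibition of NCI-H1838 cells, determined with a cell viability readout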
Description: SANGER: Inhibition of human NCI-H1838 cell growth in a cell viability assay.

EM-2 = format: functional, cell-based;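 note: growth inhibition of EM-2 cells, read out with a cell viability assay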
Description: SANGER: Inhibition of human EM-2 cell growth in a cell viability assay.

IA-LM = format: functional, cell-based;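 note: cell viability assay measuring growth inhibition of human IA-LM cells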
Description: SANGER: Inhibition of human IA-LM cell growth in a cell viability assay.

NEC8 = format: functional, cell-based;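 note: growth inhibition of human NEC8 cells, read out by a cell viability assay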
Description: SANGER: Inhibition of human NEC8 cell growth in a cell viability assay.

LC-2-ad = format: functional, cell-based;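 note: growth inhibition of human LC-2-ad cells, read out with a cell viability assay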
Description: SANGER: Inhibition of human LC-2-ad cell growth in a cell viability assay.

VA-ES-BJ = format: functional, cell-based;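 note: growth inhibition of the VA-ES-BJ cell line, read out by a cell viability assay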
Description: SANGER: Inhibition of human VA-ES-BJ cell growth in a cell viability assay.

EW-24 = format: functional, cell-based;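 note: human EW-24 cancer cell line, growth inhibition read out via a cell viability assay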
Description: SANGER: Inhibition of human EW-24 cell growth in a cell viability assay.

HD-MY-Z = format: functional, cell-based;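 note: growth inhibition of HD-MY-Z cells, read out with a cell viability assay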
Description: SANGER: Inhibition of human HD-MY-Z cell growth in a cell viability assay.

MZ7-mel = format: functional, cell-based;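 note: growth inhibition of human MZ7-mel cells, measured by a cell viability assay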
Description: SANGER: Inhibition of human MZ7-mel cell growth in a cell viability assay.

NCI-H23 = format: functional, cell-based;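 note: cell viability assay measuring growth inhibition of NCI-H23 cells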
Description: SANGER: Inhibition of human NCI-H23 cell growth in a cell viability assay.

KARPAS-299 = format: functional, cell-based
Description: SANGER: Inhibition of human KARPAS-299 cell growth in a cell viability assay.

KLE = format: functional, cell-based;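 note: growth inhibition of human KLE cells, read out with a cell viability assay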
Description: SANGER: Inhibition of human KLE cell growth in a cell viability assay.

GOTO = format: functional, cell-based;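 note: growth inhibition of GOTO cells, read out by a cell viability assay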
Description: SANGER: Inhibition of human GOTO cell growth in a cell viability assay.

NCI-H1155 = format: functional, cell-based;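 note: cell growth inhibition measured by a viability assay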
Description: SANGER: Inhibition of human NCI-H1155 cell growth in a cell viability assay.

NCI-H2126 = format: functional, cell-based;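 note: growth inhibition of the cancer cell line, determined with a cell viability readout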
Description: SANGER: Inhibition of human NCI-H2126 cell growth in a cell viability assay.

no-10 = format: functional, cell-based;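 note: growth inhibition of no-10 cells, read out with a cell viability assay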
Description: SANGER: Inhibition of human no-10 cell growth in a cell viability assay.

NCI-H1648 = format: functional, cell-based;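 note: cell viability assay measuring inhibition of NCI-H1648 cell growth, from the Sanger screening data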
Description: SANGER: Inhibition of human NCI-H1648 cell growth in a cell viability assay.

LB373-MEL-D = format: functional, cell-based;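 note: growth inhibition of the cell line, read out in a cell viability assay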
Description: SANGER: Inhibition of human LB373-MEL-D cell growth in a cell viability assay.

KGN = format: functional, cell-based;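 note: growth inhibition of KGN cells, read out with a cell viability assay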
Description: SANGER: Inhibition of human KGN cell growth in a cell viability assay.

U-87 MG = format: functional, cell-based, U-87MG ATCC;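 note: growth inhibition of the cells measured with a viability assay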
Description: SANGER: Inhibition of human U-87-MG cell growth in a cell viability assay.

TE-8 = format: functional, cell-based;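 note: growth inhibition of TE-8 cells, measured with a cell viability readout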
Description: SANGER: Inhibition of human TE-8 cell growth in a cell viability assay.

MS-1 = format: functional, cell-based;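 note: growth inhibition of MS-1 cells, read out by cell viability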
Description: SANGER: Inhibition of human MS-1 cell growth in a cell viability assay.

COLO-668 = format: functional, cell-based
Description: SANGER: Inhibition of human COLO-668 cell growth in a cell viability assay.

MZ1-PC = format: functional, cell-based;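 note: cell viability assay measuring growth inhibition of human MZ1-PC cells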
Description: SANGER: Inhibition of human MZ1-PC cell growth in a cell viability assay.

TE-12 = format: functional, cell-based;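 note: growth inhibition of TE-12 cells, read out by a cell viability assay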
Description: SANGER: Inhibition of human TE-12 cell growth in a cell viability assay.

SK-NEP-1 = format: functional, cell-based;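 note: growth inhibition of human SK-NEP-1 cells, read out by a cell viability assay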
Description: SANGER: Inhibition of human SK-NEP-1 cell growth in a cell viability assay.

SF-126 = format: functional, cell-based;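 note: growth inhibition of human SF126 cells, read out with a cell viability assay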
Description: SANGER: Inhibition of human SF126 cell growth in a cell viability assay.

KINGS-1 = format: functional, cell-based;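 note: cell viability assay measuring suppression of KINGS-1 cell growth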
Description: SANGER: Inhibition of human KINGS-1 cell growth in a cell viability assay.

NB5 = format: functional, cell-based;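 note: growth inhibition of NB5 cells, read out as cell viability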
Description: SANGER: Inhibition of human NB5 cell growth in a cell viability assay.

NCI-H226 = format: functional, cell-based;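 note: cell viability read-out used to gauge growth inhibition of the cells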
Description: SANGER: Inhibition of human NCI-H226 cell growth in a cell viability assay.

NCI-H1650 = format: functional, cell-based;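 note: growth inhibition of human NCI-H1650 cells measured by a cell viability assay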
Description: SANGER: Inhibition of human NCI-H1650 cell growth in a cell viability assay.

KNS-81-FD = format: functional, cell-based;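 note: growth inhibition of KNS-81-FD cells, read out with a cell viability assay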
Description: SANGER: Inhibition of human KNS-81-FD cell growth in a cell viability assay.

NCI-H1395 = format: functional, cell-based;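 note: cell viability assay read-out quantifying reduced proliferation of human NCI-H1395 cells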
Description: SANGER: Inhibition of human NCI-H1395 cell growth in a cell viability assay.

EW-3 = format: functional, cell-based;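 note: cell viability assay read-out, IC50 reflects inhibition of growth of the EW-3 cells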
Description: SANGER: Inhibition of human EW-3 cell growth in a cell viability assay.

EW-16 = format: functional, cell-based;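 note: growth inhibition of human EW-16 cells, read out as cell viability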
Description: SANGER: Inhibition of human EW-16 cell growth in a cell viability assay.

SK-PN-DW = format: functional, cell-based;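 note: growth inhibition measured with a viability assay on these cells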
Description: SANGER: Inhibition of human SK-PN-DW cell growth in a cell viability assay.

LOX IMVI = format: functional, cell-based
Description: SANGER: Inhibition of human LOXIMVI cell growth in a cell viability assay.

L-363 = format: functional, cell-based
Description: SANGER: Inhibition of human L-363 cell growth in a cell viability assay.

DEL = format: functional, cell-based;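 note: growth inhibition of the human DEL cell line, read out with a cell viability assay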
Description: SANGER: Inhibition of human DEL cell growth in a cell viability assay.

ML-2 = format: functional, cell-based;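 note: growth inhibition of ML-2 cells, measured with a cell viability readout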
Description: SANGER: Inhibition of human ML-2 cell growth in a cell viability assay.

K562 = format: functional, cell-based
Description: SANGER: Inhibition of human K-562 cell growth in a cell viability assay.

TK-10 = format: functional, cell-based;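 note: growth inhibition of TK-10 cells, read out in a cell viability assay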
Description: SANGER: Inhibition of human TK10 cell growth in a cell viability assay.

SK-N-DZ = format: functional, cell-based;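 note: growth inhibition of the cancer cell line, read out through a viability assay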
Description: SANGER: Inhibition of human SK-N-DZ cell growth in a cell viability assay.

TE-5 = format: functional, cell-based;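 note: inhibition of cell growth, read out by a cell viability assay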
Description: SANGER: Inhibition of human TE-5 cell growth in a cell viability assay.

EW-11 = format: functional, cell-based;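 note: growth inhibition of human EW-11 cells, measured with a cell viability assay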
Description: SANGER: Inhibition of human EW-11 cell growth in a cell viability assay.

SBC-1 = format: functional, cell-based;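 note: cell viability assay measuring growth inhibition of the SBC-1 cell line, IC50 being the concentration that halves growth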
Description: SANGER: Inhibition of human SBC-1 cell growth in a cell viability assay.

CGTH-W-1 = format: functional, cell-based;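 note: growth inhibition of human CGTH-W-1 cells measured by cell viability assay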
Description: SANGER: Inhibition of human CGTH-W-1 cell growth in a cell viability assay.

NCI-H1092 = format: functional, cell-based;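 note: cell growth inhibition measured with a cell viability assay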
Description: SANGER: Inhibition of human NCI-H1092 cell growth in a cell viability assay.

GR-ST = format: functional, cell-based
Description: SANGER: Inhibition of human GR-ST cell growth in a cell viability assay.

RKO = format: functional, cell-based
Description: SANGER: Inhibition of human RKO cell growth in a cell viability assay.

HT-144 = format: functional, cell-based
Description: SANGER: Inhibition of human HT-144 cell growth in a cell viability assay.

TE-9 = format: functional, cell-based
Description: SANGER: Inhibition of human TE-9 cell growth in a cell viability assay.

RXF 393 = format: functional, cell-based
Description: SANGER: Inhibition of human RXF393 cell growth in a cell viability assay.

COLO-800 = format: functional, cell-based
Description: SANGER: Inhibition of human COLO-800 cell growth in a cell viability assay.

KALS-1 = format: functional, cell-based
Description: SANGER: Inhibition of human KALS-1 cell growth in a cell viability assay.

DB = format: functional, cell-based
Description: SANGER: Inhibition of human DB cell growth in a cell viability assay.

EKVX = format: functional, cell-based
Description: SANGER: Inhibition of human EKVX cell growth in a cell viability assay.

A101D = format: functional, cell-based
Description: SANGER: Inhibition of human A101D cell growth in a cell viability assay.

GAK = format: functional, cell-based
Description: SANGER: Inhibition of human GAK cell growth in a cell viability assay.

CO[C@@]12[C@H](COC(N)=O)C3=C(C(=O)C(C)=C(N)C3=O)N1C[C@@H]1N[C@@H]12 [MITOMYCIN]
IC50 (SH-4): 0.387 µM
IC50 (SW 962): 0.158 µM
IC50 (HC-1): 0.157 µM
IC50 (TGBC1TKB): 1.21 µM
IC50 (Calu-6): 0.32 µM
IC50 (no-11): 7.74 µM
IC50 (NCI-H1355): 0.117 µM
IC50 (NCI-H1838): 0.404 µM
IC50 (EM-2): 1.03 µM
IC50 (IA-LM): 0.109 µM
IC50 (NEC8): 0.187 µM
IC50 (LC-2-ad): < 0.0625 µM
IC50 (VA-ES-BJ): 0.0522 µM
IC50 (EW-24): 0.783 µM
IC50 (HD-MY-Z): 0.64 µM
IC50 (MZ7-mel): 0.333 µM
IC50 (NCI-H23): 1.21 µM
IC50 (KARPAS-299): 1.42 µM
IC50 (KLE): 2.98 µM
IC50 (GOTO): 0.554 µM
IC50 (NCI-H1155): 0.873 µM
IC50 (NCI-H2126): 0.26 µM
IC50 (no-10): 0.3 µM
IC50 (NCI-H1648): 0.523 µM
IC50 (LB373-MEL-D): 0.43 µM
IC50 (KGN): 0.207 µM
IC50 (U-87 MG): 1.27 µM
IC50 (TE-8): 0.0359 µM
IC50 (MS-1): 0.344 µM
IC50 (COLO-668): < 0.0625 µM
IC50 (MZ1-PC): 0.45 µM
IC50 (TE-12): 0.19 µM
IC50 (SK-NEP-1): 0.167 µM
IC50 (SF-126): 1.41 µM
IC50 (KINGS-1): 8.61 µM
IC50 (NB5): 0.358 µM
IC50 (NCI-H226): 0.777 µM
IC50 (NCI-H1650): 0.283 µM
IC50 (KNS-81-FD): 1.59 µM
IC50 (NCI-H1395): 2.23 µM
IC50 (EW-3): 0.0619 µM
IC50 (EW-16): < 0.0625 µM
IC50 (SK-PN-DW): 0.0638 µM
IC50 (LOX IMVI): 0.353 µM
IC50 (L-363): 0.434 µM
IC50 (DEL): 0.0484 µM
IC50 (ML-2): < 0.0625 µM
IC50 (K562): 1.98 µM
IC50 (TK-10): 0.528 µM
IC50 (SK-N-DZ): 2.39 µM
IC50 (TE-5): 0.132 µM
IC50 (EW-11): 0.513 µM
IC50 (SBC-1): 0.448 µM
IC50 (CGTH-W-1): 0.0387 µM
IC50 (NCI-H1092): 3.28 µM
IC50 (GR-ST): 0.121 µM
IC50 (RKO): 0.125 µM
IC50 (HT-144): 0.0238 µM
IC50 (TE-9): 0.5 µM
IC50 (RXF 393): 4.39 µM
IC50 (COLO-800): 0.0787 µM
IC50 (KALS-1): 0.129 µM
IC50 (DB): 0.43 µM
IC50 (EKVX): 0.893 µM
IC50 (A101D): 0.257 µM
IC50 (GAK): 0.596 µM
